# Laboratory results taken from PMC8844822, “SARM1 is a multi-functional NAD(P)ase with prominent base exchange activity, all regulated bymultiple physiologically relevant NAD metabolites” (iScience, 2022).
# Legend:
# [1] = molecular target: T1, hCD38 (Homo sapiens, UniProt P28907); test: Base exchange reactions at neutral pH (HPLC); format: biochemical
# T1 construct: a soluble fragment Val43-Ile300 with 6x-His tag at C terminus; 6xHis (C); purchased R&D Systems
# T1 sequence (P28907 43-300): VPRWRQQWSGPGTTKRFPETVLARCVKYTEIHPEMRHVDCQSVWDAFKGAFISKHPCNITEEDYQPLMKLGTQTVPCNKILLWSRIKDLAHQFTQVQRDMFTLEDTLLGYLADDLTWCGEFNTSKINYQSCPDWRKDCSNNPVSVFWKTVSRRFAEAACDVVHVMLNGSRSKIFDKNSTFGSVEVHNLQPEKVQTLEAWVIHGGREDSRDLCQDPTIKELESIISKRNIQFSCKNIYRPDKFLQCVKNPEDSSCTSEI
# [2] = molecular target: T2, hSARM1 full length (Homo sapiens, UniProt Q6SZW1); test: Base exchange reactions at neutral pH (HPLC); format: biochemical
# T2 construct: Human recombinant SARM1 full length proteins (wild-type and E642A mutant); made in house
# T2 sequence (Q6SZW1 28-724): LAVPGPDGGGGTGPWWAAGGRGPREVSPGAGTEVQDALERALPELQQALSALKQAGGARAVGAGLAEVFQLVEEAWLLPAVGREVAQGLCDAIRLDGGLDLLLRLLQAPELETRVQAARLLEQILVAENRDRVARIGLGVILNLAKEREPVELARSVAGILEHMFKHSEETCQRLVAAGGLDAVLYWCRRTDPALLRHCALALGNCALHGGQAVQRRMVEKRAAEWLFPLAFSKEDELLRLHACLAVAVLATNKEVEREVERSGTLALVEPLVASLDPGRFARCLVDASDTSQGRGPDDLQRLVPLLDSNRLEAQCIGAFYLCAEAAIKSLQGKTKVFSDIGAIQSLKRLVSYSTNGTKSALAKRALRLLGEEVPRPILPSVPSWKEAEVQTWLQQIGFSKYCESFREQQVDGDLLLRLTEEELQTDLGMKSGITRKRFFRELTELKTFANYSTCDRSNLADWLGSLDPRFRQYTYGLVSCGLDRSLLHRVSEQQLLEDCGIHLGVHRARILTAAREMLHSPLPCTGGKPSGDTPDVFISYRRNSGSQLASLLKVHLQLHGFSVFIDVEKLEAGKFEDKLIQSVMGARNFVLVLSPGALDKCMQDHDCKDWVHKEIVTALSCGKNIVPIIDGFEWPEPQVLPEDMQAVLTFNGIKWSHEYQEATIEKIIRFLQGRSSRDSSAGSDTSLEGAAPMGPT
# [3] = NAD […] alone or + AcPyr 2 mM / Vacor 0.5 mM / Na 2 mM
# [4] = NADP […] alone or + AcPyr 2 mM / Vacor 0.5 mM / Na 2 mM
# [5] = hSARM1 full length +NMN 0.2 mM, NAD […]
# [6] = hSARM1 full length +NMN 0.2 mM, NAD […] alone or + free base
# [7] = hSARM1 full length +NMN 0.2 mM, NAD […], relative to NAD alone without trigger
# [8] = hSARM1 full length +NMN 0.2 mM, NADP […]
# [9] = hSARM1 full length +NMN 0.2 mM, NADP […] alone or + free base
# [10] = hSARM1 full length +NMN 0.2 mM, NADP […], relative to NADP alone without trigger
# [11] = hSARM1 full length +VMN 0.05 mM, NAD […]
# [12] = hSARM1 full length +VMN 0.05 mM, NAD […] alone or + free base
# [13] = hSARM1 full length +VMN 0.05 mM, NAD […], relative to NAD alone without trigger
# [14] = hSARM1 full length +VMN 0.05 mM, NADP […]
# [15] = hSARM1 full length +VMN 0.05 mM, NADP […] alone or + free base
# [16] = hSARM1 full length +VMN 0.05 mM, NADP […], relative to NADP alone without trigger
# [17] = hSARM1 full length, no trigger, NAD […] alone or + AcPyr 2 mM / Vacor 0.5 mM / Na 2 mM, pH 7.5
# [18] = hSARM1 full length, no trigger, NADP […] alone or + AcPyr 2 mM / Vacor 0.5 mM / Na 2 mM, pH 7.5
compound,measurement,setting,value
"O=C(NCc1cccnc1)Nc1ccc([N+](=O)[O-])cc1 [Vacor, 1-(4-nitrophenyl)-3-(pyridin-3-ylmethyl)urea]",rate,[1]; [3],6818 ±1376 mU/mg
same,rate,[1]; [4],3496 ±593 mU/mg
same,"base exchange, share of products",[2]; [5],20.86%
same,"cyclization, share of products",[2]; [5],7.06%
same,"hydrolysis, share of products",[2]; [5],72.08%
same,rate,[2]; [6],180.1 ±8.72 mU/mg
same,rate (relative fold),[2]; [7],8.26 ±0.400 fold
same,"base exchange, share of products",[2]; [8],23.61%
same,"cyclization, share of products",[2]; [8],~ 0.05%
same,"hydrolysis, share of products",[2]; [8],76.34%
same,rate,[2]; [9],134.7 ±5.67 mU/mg
same,rate (relative fold),[2]; [10],9.16 ±0.386 fold
same,"base exchange, share of products",[2]; [11],44.98%
same,"cyclization, share of products",[2]; [11],4.75%
same,"hydrolysis, share of products",[2]; [11],50.27%
same,rate,[2]; [12],206.2 ±1.12 mU/mg
same,rate (relative fold),[2]; [13],9.45 ±0.051 fold
same,"base exchange, share of products",[2]; [14],35.56%
same,"cyclization, share of products",[2]; [14],0.50%
same,"hydrolysis, share of products",[2]; [14],63.94%
same,rate,[2]; [15],148.5 ±4.61 mU/mg
same,rate (relative fold),[2]; [16],10.11 ±0.314 fold
same,rate,[2]; [17],29.5 ±2.55 mU/mg
same,rate,[2]; [18],22.9 ±1.68 mU/mg
same,"base exchange products VAD(P) or NaAD(P), share of total products","[2]; hSARM1 full length, NAD or NADP 250 μM, vacor 0.5 mM, Na 2 mM",20%–30%
"CC(=O)c1cccnc1 [AcPyr, 3-acetylpyridine]",rate,[1]; [3],8284 ±992 mU/mg
same,rate,[1]; [4],3255 ±787 mU/mg
same,"base exchange, share of products",[2]; [5],92.73%
same,"cyclization, share of products",[2]; [5],0.80%
same,"hydrolysis, share of products",[2]; [5],6.47%
same,rate,[2]; [6],218.5 ±37.4 mU/mg
same,rate (relative fold),[2]; [7],10.02 ±1.71 fold
same,"base exchange, share of products",[2]; [8],93.20%
same,"hydrolysis, share of products",[2]; [8],6.80%
same,rate,[2]; [9],131.1 ±17.0 mU/mg
same,rate (relative fold),[2]; [10],8.92 ±1.16 fold
same,"base exchange, share of products",[2]; [11],93.61%
same,"cyclization, share of products",[2]; [11],0.68%
same,"hydrolysis, share of products",[2]; [11],5.72%
same,rate,[2]; [12],228.9 ±18.9 mU/mg
same,rate (relative fold),[2]; [13],10.49 ±0.867 fold
same,"base exchange, share of products",[2]; [14],94.18%
same,"hydrolysis, share of products",[2]; [14],5.82%
same,rate,[2]; [15],140.7 ±13.3 mU/mg
same,rate (relative fold),[2]; [16],9.57 ±0.907 fold
same,rate,[2]; [17],42.6 ±3.34 mU/mg
same,rate,[2]; [18],26.6 ±1.71 mU/mg
